{
  "source": "paper PMC6669322",
  "about": "“Small Molecule Binding to Alzheimer Risk Factor CD33 Promotes Aβ Phagocytosis” (iScience, 2019)",
  "key": {"CD33 H45A": {"target": "T1, CD33 H45A (Homo sapiens, UniProt P20138, H45A)", "T1 construct": "human CD33 ORF (NM_001772.3), lacking its signal peptide; expressed in transfected cells; host or cells: HEK293T, transient, pT8-SNAP vector", "T1 sequence (P20138 18-364 H45A)": "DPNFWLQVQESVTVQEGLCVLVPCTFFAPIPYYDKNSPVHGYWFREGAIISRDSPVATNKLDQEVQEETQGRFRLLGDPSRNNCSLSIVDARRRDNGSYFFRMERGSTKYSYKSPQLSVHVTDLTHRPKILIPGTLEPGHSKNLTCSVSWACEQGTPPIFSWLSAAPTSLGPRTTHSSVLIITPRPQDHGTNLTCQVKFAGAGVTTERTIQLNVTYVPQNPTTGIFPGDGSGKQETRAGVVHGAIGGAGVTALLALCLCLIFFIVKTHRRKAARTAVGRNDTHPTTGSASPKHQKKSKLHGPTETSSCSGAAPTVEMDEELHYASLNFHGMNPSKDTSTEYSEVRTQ", "experiment": "SNAP-tag homogeneous time-resolved fluorescence binding assay, CD33 H45A", "conditions": "H45 mutated to alanine, in words", "procedure": "(§1) We then used our structural data to design mutations of key residues interacting with P22 to assess which interactions were the most important for binding affinity. The residues were mutated into alanine, and the effect of these mutations on P22 binding affinity was assessed using a SNAP-tag homogeneous time-resolved fluorescence binding assay (see Transparent Methods and Figures 3E–3G). The R119A mutation, which destroys the salt bridge between P22 and CD33, was one of the most detrimental to binding (>30-fold loss) (Figure 2C and Table S4). […]\n(§2) HEK293T cells were cultured in DMEM (ThermoFisher Scientific # 11965092) containing 10% FBS (Hyclone # SH30070.03) and 1% Penicillin-Streptomycin (ThermoFisher Scientific # 15140122) and transfected using Fugene HD (Promega # E2312) in 10 cm plates. […] The cells were counted, centrifuged and resuspended in PBS at a concentration of 1,000 cells/μL and 10 μL were plated into each well. […] Non-specific binding was assessed by competition with 100 μM of the non-labeled P22, as well as in control (Snap-tagged dopamine D2R receptor)-transfected cells.\n(§3) Fluorescence was read with a PHERAstar plate reader using an excitation of 337 nm and emissions of 620 and 665 nm. […]"}, "CD33 F21A": {"target": "T2, CD33 F21A (Homo sapiens, UniProt P20138, F21A)", "T2 construct": "human CD33 ORF (NM_001772.3), lacking its signal peptide; expressed in transfected cells; host or cells: HEK293T, transient, pT8-SNAP vector", "T2 sequence (P20138 18-364 F21A)": "as the sequence (P20138 18-364 H45A) above, with F4A, A28H counted along it", "experiment": "SNAP-tag homogeneous time-resolved fluorescence binding assay, CD33 F21A", "conditions": "binding affinity, F21A vs WT", "procedure": "as §1, §2, §3"}},
  "data": [
    {"compound": "Cc1cc(C(=O)NC[C@@H](O)[C@@H](O)[C@@H]2O[C@@](OC[C@H]3O[C@@H](O[C@H]4[C@H](O)[C@@H](O)[C@H](OCCN)O[C@@H]4CO)[C@H](O)[C@@H](O)[C@H]3O)(C(=O)O)C[C@H](O)[C@H]2NC(=O)Cn2cc(C3CCCCC3)nn2)cc(C)c1O", "note": "[P22, β-D-Glucopyranoside, 2-aminoethyl O-[N-[2-(4-cyclohexyl-1H-1,2,3-triazol-1-yl)acetyl]-9-deoxy-9-[(4-hydroxy-3,5-dimethylbenzoyl)amino]-α-neuraminosyl] (2→6)-O-β-D-galactopyranosyl-(1→4)-]", "values": [
      {"measurement": "impact of mutation on P22 binding affinity", "setting": "CD33 H45A", "value": "little to no significant impact"},
      {"measurement": "Fold-decrease compared to WT", "setting": "CD33 F21A", "value": 6, "unit": "fold"}
    ]}
  ]
}
